Measurements from US11439656B2, “Pharmaceutical compounds and uses thereof” (Regents of the University of Minnesota, priority 2018, dated 2022).

What was measured:
[1] = test system: p53 tumor suppressor protein; experiment: Western blot of p53 and p21Cip1 induction in SH-SY5Y cells; format: cell-based, human
Procedure: (§1) Cell culture, cell extract preparation, SDS-PAGE, and western blot: SH-SY5Y pediatric neuroblastoma cells were purchased from ATCC. Pediatric glioblastoma multiforme cell line CHLA-200 was a generous gift from Dr. C. Patrick Reynolds (Texas Tech). Cancer cells were cultured in RPMI-1640 supplemented with 10% fetal bovine serum (FBS) and 1% Penicillin-Streptomycin. Cells were lysed with RIPA lysis buffer (Millipore) containing protease inhibitor cocktails (Roche). The protein concentration was measured by the Lowry method. Equal amounts of protein were subjected to SDS-PAGE and then transferred to a PVDF membrane. The proteins of interest were then probed with their respective antibodies.
(§2) SH-SY5Y cells were treated with 4Ei-10. SH-SY5Y is a neuroblastorna cell line that contains wild-type p53. 4Ei-10 is a small molecule translation inhibitor. It is a prodrug that is converted to N7-chlorophenoxyethyl guanosine monophosphate by the enzyme hHINT1 in the cell as shown in FIG. 1A. N7-chlorophenoxyethyl guanosine monophosphate competes with the cap structure for binding to eIf-4E, preventing the recruitment of the 5′ mRNA cap structure to the eIF-4F complex. […] A time-course study was then performed by treating SH-SY5Y cells with 4Ei-10 at a concentration of 100 μM.
To determine if the increase of the p53 tumor suppressor protein caused by 4Ei-10 is associated with enhanced p53 tumor suppressor protein synthesis, SH-SY5Y cells were treated with 4Ei-10 or 4Ei-10 plus cycloheximide, a protein synthesis (elongation) inhibitor.

SH-SY5Y cells [2] = experiment: Western blot of PARP cleavage (apoptosis) in SH-SY5Y cells; format: cell-based
Procedure: as §1
Since the p53 tumor suppressor protein is also a stimulator of cell apoptosis, the levels of PARP, a substrate of caspase 3, were examined in SH-SY5Y cells treated with 4Ei-10.

SH-SY5Y cells [3] = experiment: MTT cell viability assay; format: cell-based; conditions: different concentrations of 4Ei-10
Procedure: MTT cell viability assay: Cells were plated on a 24-well plate at 20,000 cells/well. After treatment with different reagents, the ratio of viable cells in each well was determined using a CellTiter Cell Proliferation kit (Promega) following the manufacturer's instructions. MTS solution was placed in each well at a ratio of 20 μL/100 μL of cell culture medium and incubated in a cell culture incubator for 2-3 hours. Absorbance was then measured at the wavelength of 492 nm with a microplate reader.
as §2

SH-SY5Y cells [4] = experiment: Flow cytometry assay of cell cycle distribution; format: cell-based
Procedure: Flow Cytometry Assay of Cell Cycle Distribution: Cells were seeded onto six well plates and were grown to sub-confluency. After treatment with or without 4Ei-10, cells were gently removed from the plates, washed once with cold PBS, and fixed with cold 70% ethanol. Cells were then stained with propidium iodide and subjected to flow cytometry (Becton Dickinson FACScalibur). The cell population at each phase was analyzed by the Modfit 2 software.
Since the p53 tumor suppressor protein is known to induce cell cycle arrest through induction of p21Cip1, a cell cycle distribution analysis was performed after treating SH-SY5Y cells with 4Ei-10.

IRES of p53 mRNA = experiment: Dual luciferase assay of p53 IRES activity (pR5UTRF reporter); format: cell-based; conditions: SH-SY5Y cells transfected with pR5UTRF, compared to untreated control cells
Procedure: Dual luciferase assays: Cells were lysed with passive lysis buffer (Promega). The dual-luciferase reporter assay (Promega) was then performed according to the manufacturer's instructions. Firefly and Renilla luciferase activities were determined with a Synergy 2 (BioTek) microplate reader.
To determine if the IRES activity of p53 mRNA increases during 4Ei-10 treatment when cap-dependent protein translation is halted by 4Ei-10, a bicistronic dual-luciferase reporter vector pR5UTRF, which contains the IRES sequence (−131 nt before 1st AUG of p53 ORF, accession number, NM_00546.4) of the p53 mRNA, was used to transfect SH-SY5Y cells. The IRES activity of p53 mRNA was then measured as the ratio of firefly (Fluc, controlled by the IRES sequence of p53 mRNA) to Renilla luciferase (Rluc) activity, Rluc is controlled by eIF4E and cap-dependent protein translational machinery and was used as an internal control for Fluc.

SH-SY5Y cells [5] = experiment: Cell Death ELISA analysis; format: cell-based; conditions: data not shown
CHLA-200 cells = experiment: Western blot of p53, p21Cip1 and PARP cleavage in CHLA-200 cells; format: cell-based
Procedure: as §1
The ability of 4Ei-10 to induce the p53 tumor suppressor protein in other type of cell lines was also examined. CHLA-200 is a children's glioblastoma multiforme cell line with wild-type p53. CHLA-200 cells were treated with 100 μM 4Ei-10.

SH-SY5Y cells [6] = experiment: Indirect immunofluorescence of phosphorylated H2A.X foci (DNA double strand breaks); format: cell-based; conditions: nucleus
Procedure: Indirect immunofluorescence: Chamber slides (8 wells, Lab-Tek) were treated with Poly-L-Lysine (Sigma) prior to seeding with SH-SY5Y cells at 8000 cells/well. Sub-confluent cells were treated with different reagents. After treatment, cells were briefly fixed in 3% paraformaldehyde solution and were then permeablized with 0.2% Triton X-100 in Tris-buffered saline. After permeabilization, cells were incubated with a phosphor-Histone H2A.X antibody (Millipore) and then with a Texas-Red conjugated secondary antibody (Jackson Laboratories) followed by DAPI staining. Images were recorded using a Nikon Eclipse TE2000-E confocal microscope at 60× magnification.
Foci formation of phosphorylated H2A.X, which recognizes DNA double strand breaks, was examined.

eIF4E and eIF4G = molecular target: T1, eIF4E and eIF4G (Homo sapiens, UniProt P06730); experiment: m7-GTP Sepharose bead pull-down of eIF4E and eIF4G; format: cell-based; conditions: SH-SY5Y cells, 100 μM, 24 hours
T1 construct: endogenous in cells; host or cells: SH-SY5Y
Procedure: SH-SY5Y cells were treated with 100 μM 4Ei-10 for 24 hours. After treatment, cells were lysed and equal amounts of proteins were incubated with m^7-GTP Sepharose beads. After incubation, beads were washed and mixed with SDS-PAGE loading buffer. The eluted proteins were then subjected to SDS-PAGE and transferred to a PVDF membrane. Bound eIF4G and eIF-4E were then detected with total eIF4E and total β-actin as input controls.

MCF-7 cells = experiment: Western blot of p53 and PARP cleavage in MCF-7 cells; format: cell-based; conditions: 4Ei-10 alone
Procedure: Sub-confluent MCF-7 cells were treated with either 100 μM 4Ei-10, 50 μM 4EGI-1, or both for 24 hours. After treatment, both floating and attached cells were collected and lysed. Equal amounts of protein were subjected to SDS-PAGE and transferred to a PVDF membrane. p53, PARP, cleaved PARP, and β-actin were detected with their respective antibodies.

[7] = test system: cell lines of mantle cell lymphoma (MCL); conditions: cited from earlier work

T1 sequence (P06730 2-217 limits assumed): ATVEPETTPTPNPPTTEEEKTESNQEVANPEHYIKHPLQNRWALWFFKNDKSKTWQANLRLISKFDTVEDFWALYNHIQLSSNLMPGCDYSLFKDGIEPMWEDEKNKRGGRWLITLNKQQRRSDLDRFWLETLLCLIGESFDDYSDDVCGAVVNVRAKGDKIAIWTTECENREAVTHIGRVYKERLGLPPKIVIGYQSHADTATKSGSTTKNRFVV

## O=C(O)C(Cc1ccccc1[N+](=O)[O-])=NNc1nc(-c2ccc(Cl)c(Cl)c2)cs1 (mixture of isomers) [4EGI-1, reference compound]
[1]
  induction of the p53 tumor suppressor protein, comparison of single agents and combination: stronger ability
SH-SY5Y cells [2]
  induction of cellular apoptosis, comparison of single agents and combination: stronger ability

## CSCCOP(=O)(NCCc1c[nH]c2ccccc12)OC[C@H]1O[C@@H](n2c[n+](CCOc3ccc(Cl)cc3)c3c(=O)[nH]c(N)nc32)C(O)C1O (stereo partly drawn) [4Ei-10]
SH-SY5Y cells [3]
  cell viability or cell proliferation: decrease in cell viability or cell proliferation in a concentration-dependent manner
[1]; 100 μM, time-course
  expression of p53 downstream target p21Cip1: increased expression
  p53 tumor suppressor protein accumulation: induced p53 tumor suppressor protein accumulation
[1]; protein synthesis inhibitor experiment
  p53 tumor suppressor protein accumulation with or without cycloheximide: induction of the p53 tumor suppressor protein
SH-SY5Y cells [4]
  cell numbers at the G1 phase: substantial increase
  cell numbers at the S phase: dramatic decrease
SH-SY5Y cells [4]; compared to control cells
  G1S ratio, an indicator of G1 cell cycle arrest: two-fold increase
IRES of p53 mRNA
  IRES activity of p53 mRNA (ratio of Fluc/Rluc): significantly increased
SH-SY5Y cells [2]; 100 μM
  cleaved PARP (cellular apoptosis): increase of cleaved PARP
  strength of apoptosis induced: relatively weak
SH-SY5Y cells [2]; 100 μM, prolonged treatment
  treatment time after which apoptosis could be seen: ≥ 24 h
SH-SY5Y cells [5]
  cell death or apoptosis: enhanced cell death or apoptosis
CHLA-200 cells; CHLA200 cells
  cell apoptosis: increased cell apoptosis
  induction of the p53 tumor suppressor protein: Induction of the p53 tumor suppressor protein was observed
CHLA-200 cells; CHLA-200 cells, 100 μM
  PARP cleavage (apoptosis): induced
  p21Cip1 induction (cell cycle arrest): induced
SH-SY5Y cells [6]
  foci formation of phosphorylated H2A.X (DNA double strand breaks): not seen
eIF4E and eIF4G
  eIF4E bound to the m7-GTP Sepharose beads: decreased
  eIF4G bound to the m7-GTP Sepharose beads: decreased
MCF-7 cells
  cell apoptosis: increased cell apoptosis
  induction of the p53 tumor suppressor protein: Induction of the p53 tumor suppressor protein was observed
[7]
  c-Myc expression: suppression of c-Myc expression
  expression of p27: induce the expression of p27
[7]; multiple cell lines of mantle cell lymphoma
  cell proliferation and cell survival: inhibits cell proliferation and cell survival
[7]; to doxorubicin, dexamethasone, and ibrutinib
  chemosensitization: enhanced chemosensitization
